# Laboratory results: patent US20190030039A1, “PREVENTION OF SSRI-INDUCED GASTROINTESTINAL DYSFUNCTION WITH A 5-HT4 RECEPTOR ANTAGONIST” (The Trustees of Columbia University in the City of New York, priority 2016, published 2019)
# Tests used:
# [1] = test system: mice; assay: Novelty-suppressed feeding (NSF) test, measurement of anxiety; assay type: in vivo, mouse; conditions: FIGS. 3A-3D
# Description: FIGS. 3A-3D are a series of bar graphs showing results from the novelty-suppressed feeding (NSF) test, a measurement of anxiety. Maternal dams were administered either water (control), Fluoxetine (SSRI), or both Fluoxetine and Piboserod (SSRI+Pibo) from E1 through weaning from breastfeeding. Pups were thus exposed to aforementioned medications during gestation and breastfeeding. Once pups were weaned, at P21, they were not given any medications. The pups were evaluated at 6-8 weeks of age to rule out acute drug effects. The NSF test began with a short term food restriction of 18 hours (water was still available). After the test, mice were given food ad libitum again. The NSF test is a “conflict” test, which assesses the competing motivations of the animal to explore (forage) for food versus remain in the safety of the periphery of the arena. Mice were placed into a white box with shavings on the floor and two food pellets placed on a circle of filter paper in the center of the arena. The latency to chew the food is the measure of anxiety. Measured times included time to reach the filter paper with the food pellet on it (“time to filter”), time to touch/smell the pellet (“time to pellet”), time to bite the pellet (“time to bite”) and time to sit and eat the pellet (“time to sit and eat”). […]
# [2] = test system: mice; assay: Sucrose preference test, measurement of depression; assay type: in vivo, mouse; conditions: FIG. 4
# Description: FIG. 4 is a bar graph showing results from the sucrose preference test, a measurement of depression in mice. Maternal dams were administered either water (control), Fluoxetine (SSRI), or both Fluoxetine and Piboserod (SSRI+Pibo) from E1 through weaning from breastfeeding. Pups were thus exposed to aforementioned medications during gestation and breastfeeding. Once pups were weaned, at P21, they were not given any medications. The pups were evaluated at 6-8 weeks of age to rule out acute drug effects. For the sucrose preference test, mice were trained for 2 days to drink diluted sucrose and water from serological pipettes with sippers attached and testing was done on day 3. The volumes of sucrose and water consumed overnight were recorded. A reduced preference for sucrose solution over plain water represents anhedonia.
# (§1) In the present invention, the serotonin-4 receptor (5-HT4R) has been identified as a critical player in SERT modulation, ENS and CNS development and GI function. […] (FIGS. 1-2). […] Administration of a 5-HT4R antagonist during neurodevelopment thus corrects the long-lasting gastrointestinal motility and behavioral defects caused by developmental exposure to SSRls.
# [3] = at birth; in utero exposure; cited from earlier work
# [4] = test system: mice; assay: Colonic transit time (glass bead expulsion) in pups exposed during gestation and breastfeeding; assay type: in vivo; conditions: Piboserod given to mouse mothers during pregnancy and breastfeeding concomitantly with Fluoxetine; pups evaluated at 6-8 weeks; FIG. 2
# Description: FIG. 2 is a bar graph showing colonic transit time (expressed as percentage of control). Maternal dams were administered either water (control), Fluoxetine (SSRI), or both Fluoxetine and Piboserod (SSRI+Pibo) from E1 through weaning from breastfeeding. Pups were thus exposed to aforementioned medications during gestation and breastfeeding. Once pups were weaned, at P21, they were not given any medications. Pups were evaluated at 6-8 weeks of age to rule out acute drug effects. Colonic transit time was measured by inserting a 2 mm glass bead 4 cm into the rectum and calculating the time it took for bead expulsion to occur.
# as §1
# [5] = test system: mice; assay: Total intestinal transit time (Rhodamine B bolus) in pups exposed during gestation and breastfeeding; assay type: in vivo; conditions: Piboserod given to mouse mothers during pregnancy and breastfeeding concomitantly with Fluoxetine; pups evaluated at 6-8 weeks; FIG. 1
# Description: FIG. 1 is a bar graph showing total intestinal transit time (expressed as percentage of control). Maternal dams were administered either water (control), Fluoxetine (SSRI), or both Fluoxetine and Piboserod (SSRI+Pibo) from embryonic day 1 (E1) through weaning from breastfeeding. Pups were thus exposed to aforementioned medications during gestation and breastfeeding. Once pups were weaned, at postnatal day 21 (P21), they were not given any medications. Pups were then evaluated at 6-8 weeks of age to rule out acute drug effects. Total intestinal transit time was measured by administering a bolus of Rhodamine B (time 0) and calculating the amount of time until the rhodamine was found in the stool.
# as §1
# [6] = mice exposed to Fluoxetine in utero and during breastfeeding, evaluated at 6-8 weeks
# [7] = mice exposed to Piboserod and Fluoxetine concomitantly in utero and during breastfeeding
Structure (SMILES),"levels of anxiety (novelty-suppressed feeding) [1, 6]","levels of depression (sucrose preference test) [2, 6]","plasma Fluoxetine levels in newborns, of maternal levels [3]",colonic motility [4],total intestinal transit [5],"anxiety behavior (novelty-suppressed feeding) [1, 7]","depression behavior (sucrose preference test) [2, 7]"
CNCCC(Oc1ccc(C(F)(F)F)cc1)c1ccccc1 (stereo not shown) [Fluoxetine],increased levels,increased levels,approximately 70%,–,–,–,–
CCCCN1CCC(CNC(=O)c2c3n(c4ccccc24)CCCO3)CC1 [Piboserod],–,–,–,comparable with control mice,comparable with control mice,behaviorally comparable to control mice,behaviorally comparable to control mice
